Source: ChEMBL document CHEMBL1123631, “Synthesis and gastrointestinal pharmacology of the 4-fluoro analogue of enisoprost” (1987)

What was measured:
Type in all cases: functional
[1] = test system: Canis familiaris; assay: Gastric antisecretory activity was determined in food stimulated Pavlov dogs by intrapouch administration ig; Value ranges from 0.017-0.032; conditions: Canis lupus familiaris
[2] = organism: Rattus norvegicus; assay: Mucosal protective activity in rats was measured as minimum effective dose (MED); ig; conditions: po, read-out: MED
[3] = test system: Canis familiaris; assay: Gastric antisecretory activity was determined in food stimulated Pavlov dogs by intrapouch administration ig; Value ranges from 6.2-15.3; conditions: Canis lupus familiaris

CCCCC(C)(O)C/C=C/[C@H]1[C@H](O)CC(=O)[C@@H]1CC/C=C\CCC(=O)OC (some centres undefined) [ENISOPROST] was tested, and the ED50 [1] was 0.023 µg/kg and the minimal effective dose [2] was 1 µg/kg.

Compound CCCCC(C)(O)C/C=C/[C@H]1[C@H](O)CC(=O)[C@@H]1CC/C=C(/F)CCC(=O)OC (some centres undefined) has an ED50 [3] of 9.7 µg/kg and a minimal effective dose [2] of 50 µg/kg.
